Experimental data taken from patent US8481544B2, “Antibacterial compositions” (Biota Europe Limited, priority 2006, dated 2013).
Converted amounts (≈) assume the structure as drawn.

System: Enterococcus faecalis ATCC 29212
Experiment: MIC against Enterococcus faecalis ATCC 29212
Format: cell-based
Details: ATCC29212; Enterococcus faecalis ATCC 29212; read-out: MICs against Enterococcus faecalis, Activity
Method: Institute. Methods for Dilution Antimicrobial Susceptibility Tests for Bacteria That Grow Aerobically; Approved Standard—Seventh Edition. Document M7-A7. CLSI, Wayne, Pa., 2006; Clinical Laboratories and Standards Institute. Methods for Antimicrobial Susceptibility Testing of Anaerobic Bacteria; Approved Standard—Sixth Edition. Document M11-A6. CLSI, Wayne, Pa., 2004).
Compounds of this invention were tested for antimicrobial activity by susceptibility testing in liquid or on solid media. MICs for compounds against each strain were determined by the broth microdilution or agar dilution method according to the guidelines of the Clinical Laboratories and Standards Institute, formerly the National Committee for Clinical Laboratory Standards (Clinical Laboratories and Standards Institute. Methods for Dilution Antimicrobial Susceptibility Tests for Bacteria That Grow Aerobically; Approved Standard—Seventh Edition. Document M7-A7. CLSI, Wayne, Pa., 2006; Clinical Laboratories and Standards Institute. Methods for Antimicrobial Susceptibility Testing of Anaerobic Bacteria; Approved Standard—Sixth Edition. Document M11-A6. CLSI, Wayne, Pa., 2004).

| Structure (SMILES) | MIC |
| --- | --- |
| CCNC(=O)Nc1nc2cc(-c3ccc(C)nn3)cc(-c3cccnc3)c2s1 [Example 46, 1-Ethyl-3-[5-(6-methyl-pyridazin-3-yl)-7-pyridin-3-yl-benzothiazol-2-yl]-urea] | 2 to 16 µg/mL (≈ 5.12 to 41 µM) |
| CCNC(=O)Nc1nc2cc(-c3cncc(C(=O)NCCN(C)C)c3)cc(-c3ccccn3)c2s1 [Example 64, N-(2-Dimethylamino-ethyl)-5-[2-(3-ethyl-ureido)-7-pyridin-2-yl-benzothiazol-5-yl]-nicotinamide] | 2 to 16 µg/mL (≈ 4.08 to 32.7 µM) |
| CCNC(=O)Nc1nc2cc(-c3cnc4c(c3)CNCC4)cc(-c3ccccn3)c2s1 [Example 65, 1-Ethyl-3-[7-pyridin-2-yl-5-(5,6,7,8-tetrahydro-[1,6]naphthyridin-3-yl)-benzothiazol-2-yl]-urea] | 0.25 to 1 µg/mL (≈ 0.581 to 2.32 µM) |
| CCNC(=O)Nc1nc2cc(-c3ccc(NC(=O)CN(C)C)nc3)cc(-c3ccccn3)c2s1 [Example 66, 2-Dimethylamino-N-{5-[2-(3-ethyl-ureido)-7-pyridin-2-yl-benzothiazol-5-yl]-pyridin-2-yl}-acetamide] | 0.25 to 1 µg/mL (≈ 0.526 to 2.1 µM) |
| CCNC(=O)Nc1nc2cc(-c3ccc(CNC)nc3)cc(-c3ccccn3)c2s1 [Example 67, 1-Ethyl-3-[5-(6-methylaminomethyl-pyridin-3-yl)-7-pyridin-2-yl-benzothiazol-2-yl]-urea] | 0.25 to 1 µg/mL (≈ 0.597 to 2.39 µM) |
| CCNC(=O)Nc1nc2cc(-c3cncc(C(=O)NCCN4CCOCC4)c3)cc(-c3ccccn3)c2s1 [Example 68, 5-[2-(3-Ethyl-ureido)-7-pyridin-2-yl-benzothiazol-5-yl]-N-(2-morpholin-4-yl-ethyl)-nicotinamide] | 0.25 to 1 µg/mL (≈ 0.47 to 1.88 µM) |
| CCNC(=O)Nc1nc2cc(-c3ccn(CCN(C)C)c(=O)c3)cc(-c3ccccn3)c2s1 [Example 72, 1-{5-[1-(2-Dimethylamino-ethyl)-2-oxo-1,2-dihydro-pyridin-4-yl]-7-pyridin-2-yl-benzothiazol-2-yl}-3-ethyl-urea] | 0.25 to 1 µg/mL (≈ 0.54 to 2.16 µM) |
| CCNC(=O)Nc1nc2cc(-c3cnccn3)cc(-c3cnc(N)nc3)c2s1 [Example 73, 1-[7-(2-Amino-pyrimidin-5-yl)-5-pyrazin-2-yl-benzothiazol-2-yl]-3-ethyl-urea] | 2 to 16 µg/mL (≈ 5.1 to 40.8 µM) |
| CCNC(=O)Nc1nc2cc(-c3ccccn3)cc(-c3cnc(N)nc3)c2s1 [Example 74, 1-[7-(2-Amino-pyrimidin-5-yl)-5-pyridin-2-yl-benzothiazol-2-yl]-3-ethyl-urea] | 2 to 16 µg/mL (≈ 5.11 to 40.9 µM) |
| CCNC(=O)Nc1nc2cc(-c3cccnc3)cc(-c3ccccc3F)c2s1 [Example 75, 1-Ethyl-3-[7-(2-fluoro-phenyl)-5-pyridin-3-yl-benzothiazol-2-yl]-urea] | 0.25 to 1 µg/mL (≈ 0.637 to 2.55 µM) |
| CCNC(=O)Nc1nc2cc(-c3cccnc3)cc(-c3cccnc3F)c2s1 [Example 76, 1-Ethyl-3-[7-(2-fluoro-pyridin-3-yl)-5-pyridin-3-yl-benzothiazol-2-yl]-urea] | 0.25 to 1 µg/mL (≈ 0.635 to 2.54 µM) |
| CCNC(=O)Nc1nc2cc(-c3cccnc3)cc(-c3ccsc3)c2s1 [Example 77, 1-Ethyl-3-(5-pyridin-3-yl-7-thiophen-3-yl-benzothiazol-2-yl)-urea] | 0.25 to 1 µg/mL (≈ 0.657 to 2.63 µM) |
| CCNC(=O)Nc1nc2cc(-c3cccnc3)cc(-c3ccccc3)c2s1 [Example 78, 1-Ethyl-3-(7-phenyl-5-pyridin-3-yl-benzothiazol-2-yl)-urea] | 0.25 to 1 µg/mL (≈ 0.668 to 2.67 µM) |
| CCNC(=O)Nc1nc2cc(-c3cccnc3)cc(C3CC3)c2s1 [Example 79, 1-(7-Cyclopropyl-5-pyridin-3-yl-benzothiazol-2-yl)-3-ethyl-urea] | 0.25 to 1 µg/mL (≈ 0.739 to 2.95 µM) |
| CCNC(=O)Nc1nc2cc(-c3cccnc3)cc(-c3cn[nH]c3)c2s1 [Example 80, 1-Ethyl-3-[7-(1H-pyrazol-4-yl)-5-pyridin-3-yl-benzothiazol-2-yl]-urea] | 0.25 to 1 µg/mL (≈ 0.686 to 2.74 µM) |
| CCNC(=O)Nc1nc2cc(-c3cccnc3)cc(-c3cnn(CCN4CCOCC4)c3)c2s1 [Example 81, 1-Ethyl-3-{7-[1-(2-morpholin-4-yl-ethyl)-1H-pyrazol-4-yl]-5-pyridin-3-yl-benzothiazol-2-yl}-urea] | 2 to 16 µg/mL (≈ 4.19 to 33.5 µM) |
| CCNC(=O)Nc1nc2cc(-c3cccnc3)cc(-c3cc[nH]n3)c2s1 [Example 82, 1-Ethyl-3-[7-(1H-pyrazol-3-yl)-5-pyridin-3-yl-benzothiazol-2-yl]-urea] | 0.25 to 1 µg/mL (≈ 0.686 to 2.74 µM) |

Next, values leading:

| MIC | Structure (SMILES) |
| --- | --- |
| 0.25 to 1 µg/mL (≈ 0.617 to 2.47 µM) | CCNC(=O)Nc1nc2cc(-c3ccn(C)c(=O)c3)cc(-c3cccnc3)c2s1 [Example 47, 1-Ethyl-3-[5-(1-methyl-2-oxo-1,2-dihydro-pyridin-4-yl)-7-pyridin-3-yl-benzothiazol-2-yl]-urea] |
| 0.25 to 1 µg/mL (≈ 0.61 to 2.44 µM) | CCNC(=O)Nc1nc2cc(-c3cncc(Cl)c3)cc(-c3cccnc3)c2s1 [Example 48, 1-[5-(5-Chloro-pyridin-3-yl)-7-pyridin-3-yl-benzothiazol-2-yl]-3-ethyl-urea] |
| 0.25 to 1 µg/mL (≈ 0.603 to 2.41 µM) | CCNC(=O)Nc1nc2cc(-c3cnc4[nH]ccc4c3)cc(-c3cccnc3)c2s1 [Example 49, 1-Ethyl-3-[7-pyridin-3-yl-5-(1H-pyrrolo[2,3-b]pyridin-5-yl)-benzothiazol-2-yl]-urea] |
| 0.25 to 1 µg/mL (≈ 0.596 to 2.38 µM) | CCNC(=O)Nc1nc2cc(-c3cc(C)n(C)c(=O)c3)cc(-c3cccnc3)c2s1 [Example 50, 1-[5-(1,6-Dimethyl-2-oxo-1,2-dihydro-pyridin-4-yl)-7-pyridin-3-yl-benzothiazol-2-yl]-3-ethyl-urea] |
| < 0.25 µg/mL | CCNC(=O)Nc1nc2cc(-c3ccn(C)c(=O)c3)cc(-c3ccccn3)c2s1 [Example 51, 1-Ethyl-3-[5-(1-methyl-2-oxo-1,2-dihydro-pyridin-4-yl)-7-pyridin-2-yl-benzothiazol-2-yl]-urea] |
| 0.25 to 1 µg/mL (≈ 0.642 to 2.57 µM) | CCNC(=O)Nc1nc2cc(-c3cccnc3C)cc(-c3ccccn3)c2s1 [Example 52, 1-Ethyl-3-[5-(2-methyl-pyridin-3-yl)-7-pyridin-2-yl-benzothiazol-2-yl]-urea] |
| < 0.25 µg/mL | CCNC(=O)Nc1nc2cc(-c3cncc(N)n3)cc(-c3ccccn3)c2s1 [Example 53, 1-[5-(6-Amino-pyrazin-2-yl)-7-pyridin-2-yl-benzothiazol-2-yl]-3-ethyl-urea] |
| 0.25 to 1 µg/mL (≈ 0.56 to 2.24 µM) | CCNC(=O)Nc1nc2cc(-c3cnc4c(c3)NC(=O)CO4)cc(-c3ccccn3)c2s1 [Example 54, 1-Ethyl-3-[5-(2-oxo-2,3-dihydro-1H-pyrido[2,3-b][1,4]oxazin-7-yl)-7-pyridin-2-yl-benzothiazol-2-yl]-urea] |
| 0.25 to 1 µg/mL (≈ 0.496 to 1.99 µM) | CCNC(=O)Nc1nc2cc(-c3ccc(NC(=O)CNC(C)(C)C)nc3)cc(-c3ccccn3)c2s1 [Example 55, 2-tert-Butylamino-N-{5-[2-(3-ethyl-ureido)-7-pyridin-2-yl-benzothiazol-5-yl]-pyridin-2-yl}-acetamide] |
| 0.25 to 1 µg/mL (≈ 0.639 to 2.55 µM) | CCNC(=O)Nc1nc2cc(-c3ccnc(O)c3)cc(-c3ccccn3)c2s1 [Example 56, 1-Ethyl-3-[5-(2-hydroxy-pyridin-4-yl)-7-pyridin-2-yl-benzothiazol-2-yl]-urea] |
| 0.25 to 1 µg/mL (≈ 0.574 to 2.3 µM) | CCNC(=O)Nc1nc2cc(-c3ccn(CCO)c(=O)c3)cc(-c3ccccn3)c2s1 [Example 57, 1-Ethyl-3-{5-[1-(2-hydroxy-ethyl)-2-oxo-1,2-dihydro-pyridin-4-yl]-7-pyridin-2-yl-benzothiazol-2-yl}-urea] |
| < 0.25 µg/mL | CCNC(=O)Nc1nc2cc(-c3ccc(CCO)nc3)cc(-c3ccccn3)c2s1 [Example 58, 1-Ethyl-3-{5-[6-(2-hydroxy-ethyl)-pyridin-3-yl]-7-pyridin-2-yl-benzothiazol-2-yl}-urea] |
| < 0.25 µg/mL | CCNC(=O)Nc1nc2cc(-c3ccc(CN4CCOCC4)nc3)cc(-c3ccccn3)c2s1 [Example 59, 1-Ethyl-3-[5-(6-morpholin-4-ylmethyl-pyridin-3-yl)-7-pyridin-2-yl-benzothiazol-2-yl]-urea] |
| 0.25 to 1 µg/mL (≈ 0.48 to 1.92 µM) | CCNC(=O)Nc1nc2cc(-c3ccc(CN(CCOC)CCOC)nc3)cc(-c3ccccn3)c2s1 [Example 60, 1-[5-(6-{[Bis-(2-methoxy-ethyl)-amino]-methyl}-pyridin-3-yl)-7-pyridin-2-yl-benzothiazol-2-yl]-3-ethyl-urea] |
| 0.25 to 1 µg/mL (≈ 0.542 to 2.17 µM) | CCNC(=O)Nc1nc2cc(-c3ccc(NCCN(C)C)nc3)cc(-c3ccccn3)c2s1 [Example 61, 1-{5-[6-(2-Dimethylamino-ethylamino)-pyridin-3-yl]-7-pyridin-2-yl-benzothiazol-2-yl}-3-ethyl-urea] |
| 0.25 to 1 µg/mL (≈ 0.528 to 2.11 µM) | CCNC(=O)Nc1nc2cc(-c3cncc(N4CCN(C)CC4)c3)cc(-c3ccccn3)c2s1 [Example 62, 1-Ethyl-3-{5-[5-(4-methyl-piperazin-1-yl)-pyridin-3-yl]-7-pyridin-2-yl-benzothiazol-2-yl}-urea] |
| 0.25 to 1 µg/mL (≈ 0.495 to 1.98 µM) | CCNC(=O)Nc1nc2cc(-c3ccn(CCN4CCOCC4)c(=O)c3)cc(-c3ccccn3)c2s1 [Example 63, 1-Ethyl-3-{5-[1-(2-morpholin-4-yl-ethyl)-2-oxo-1,2-dihydro-pyridin-4-yl]-7-pyridin-2-yl-benzothiazol-2-yl}-urea] |
| < 0.25 µg/mL | CCNC(=O)Nc1nc2cc(-c3ccc(CC(=O)OC)nc3)cc(-c3ccccn3)c2s1 [Example 69, {5-[2-(3-Ethyl-ureido)-7-pyridin-2-yl-benzothiazol-5-yl]-pyridin-2-yl}-acetic acid methyl ester] |
| < 0.25 µg/mL | CCNC(=O)Nc1nc2cc(-c3ccc(CC(=O)NC)nc3)cc(-c3ccccn3)c2s1 [Example 70, 2-{5-[2-(3-Ethyl-ureido)-7-pyridin-2-yl-benzothiazol-5-yl]-pyridin-2-yl}-N-methyl-acetamide] |
| < 0.25 µg/mL | CCNC(=O)Nc1nc2cc(-c3cnc4c(c3)CCC(=O)N4)cc(-c3ccccn3)c2s1 [Example 71, 1-Ethyl-3-[5-(7-oxo-5,6,7,8-tetrahydro-[1,8]naphthyridin-3-yl)-7-pyridin-2-yl-benzothiazol-2-yl]-urea] |
